The nature of data set [1]: Spectrophotometry and two-photon excitation scans. The data set is classed as physicochemical. As for the experimental part: Spectrophotometry: Absorption readings were obtained using a Nanodrop One system (Thermo Scientific), while excitation and emission scans were obtained using a Spectramax M2 dual grating system (Molecular Devices). Intensity scans relative to excitation wavelength obtained on either of our custom two-photon excitation (2PE) rigs were analyzed with ImageJ and plotted using Matlab (v2022b).

Data set [2] in a line: Toxicity of probe (stated key feature).

As for `O=S(=O)(O)CCCC[n+]1ccc2ccccc2c1` [NSBQ, N-4(sulfobutyl)isoquinolinium, reference compound], in data set [1], the “excitation wavelength using 2PE” value is listed as 710 nm.
In the case of `NCCCC[n+]1cc2ccccc2c2ccccc21` [ABP, N-(4-aminobutyl)phenantridinium], in data set [1] (excitation at 360 nm), the fluorescence emission maximum entry is listed as “approximately 420 nm”. The toxicity entry in data set [2] is listed as “absence of toxicity”.

Values taken from patent publication US20260265202A1, “N-(N-AMINOALKYL)[…] SERIES OF CHLORIDE-SENSITIVE FLUOROPHORES AND METHODS OF USE THEREOF” (The General Hospital Corporation, priority 2022, published 2026).
